From BindingDB's records for patent US20250313563 (The Broad Institute, 2025)
pIC50: −log10 of the molar value. Several values for one entry are separate records, joined by “and”; a condition that tells them apart may be missing. Equal values may be shown once.

Assays:
[1] = target: Glycogen synthase kinase-3 alpha (Homo sapiens, UniProt P49840); experiment: TR-FRET Assay
Method in brief: (§1)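 Compound was preincubated 30 min in assay buffer before the kinase reaction, which was quenched with EDTA. Phosphorylation was detected by TR-FRET after adding a solution of 40 nM streptavidin-d2 and 2 nM Tb-labelled anti-pSer641 antibody.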

[2] = target: Glycogen synthase kinase-3 beta (Homo sapiens, UniProt P49841); experiment: TR-FRET Assay
Sequence of Glycogen synthase kinase-3 beta (P49841 whole entry): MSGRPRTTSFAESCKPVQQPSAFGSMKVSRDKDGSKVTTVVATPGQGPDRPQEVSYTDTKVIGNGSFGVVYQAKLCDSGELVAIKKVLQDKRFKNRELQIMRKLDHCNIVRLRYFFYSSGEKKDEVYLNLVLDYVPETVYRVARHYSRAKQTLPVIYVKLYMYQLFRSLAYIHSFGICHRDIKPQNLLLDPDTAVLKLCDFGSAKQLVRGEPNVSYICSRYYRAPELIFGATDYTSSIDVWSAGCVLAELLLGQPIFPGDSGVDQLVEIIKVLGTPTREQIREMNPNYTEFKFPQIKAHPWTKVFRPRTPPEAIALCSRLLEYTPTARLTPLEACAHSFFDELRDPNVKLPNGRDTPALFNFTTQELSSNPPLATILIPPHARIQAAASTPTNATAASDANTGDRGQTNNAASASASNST
Method in brief: as §1

Sequence of Glycogen synthase kinase-3 alpha (P49840 whole entry): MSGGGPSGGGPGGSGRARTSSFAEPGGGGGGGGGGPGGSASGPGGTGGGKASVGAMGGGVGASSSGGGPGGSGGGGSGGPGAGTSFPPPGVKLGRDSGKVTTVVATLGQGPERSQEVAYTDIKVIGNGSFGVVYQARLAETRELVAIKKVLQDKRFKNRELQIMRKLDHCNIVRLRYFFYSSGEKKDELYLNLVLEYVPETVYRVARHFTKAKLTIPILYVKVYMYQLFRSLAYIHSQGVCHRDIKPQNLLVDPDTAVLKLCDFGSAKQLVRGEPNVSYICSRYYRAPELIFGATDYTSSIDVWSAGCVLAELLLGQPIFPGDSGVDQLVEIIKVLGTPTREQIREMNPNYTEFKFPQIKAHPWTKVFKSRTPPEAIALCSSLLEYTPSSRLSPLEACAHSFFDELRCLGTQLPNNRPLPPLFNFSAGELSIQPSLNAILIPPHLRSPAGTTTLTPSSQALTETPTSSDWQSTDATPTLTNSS

Structure (SMILES)	pIC50 [1]	pIC50 [2]
CC[C@@]1(c2cccc(-c3cn(C)nc3C)c2)C2=C(CC(C)(C)NC2=O)NC2N=NC(C(F)F)=C21 (some centres undefined) [US20250313563, Compound 950497]	> 7.00	> 7.00 and 6.00 to 7.00
CC[C@@]1(c2cccc(-c3ccnc(C(F)F)c3)c2)C2=CN=NC2NC2=C1C(=O)NC(C)(C)C2 (some centres undefined) [US20250313563, Compound 950561]	> 7.00	6.00 to 7.00
CC[C@@]1(c2cccc(-c3cnn(C)c3F)c2)C2=CN=NC2NC2=C1C(=O)NC(C)(C)C2 (some centres undefined) [US20250313563, Compound 950562]	> 7.00	6.00 to 7.00
CC[C@@]1(c2cccc(-c3cn(C)nc3C(F)(F)F)c2)C2=CN=NC2NC2=C1C(=O)NC(C)(C)C2 (some centres undefined) [US20250313563, Compound 950563]	> 7.00	> 7.00
CC[C@@]1(c2cccc(-c3cnn4c3CC(C)(C)CC4)c2)C2=CN=NC2NC2=C1C(=O)NC(C)(C)C2 (some centres undefined) [US20250313563, Compound 950564]	> 7.00	6.00 to 7.00
CC[C@@]1(c2cccc(-c3cnn4cc(F)cc(F)c34)c2)C2=CN=NC2NC2=C1C(=O)NC(C)(C)C2 (some centres undefined) [US20250313563, Compound 950565]	> 7.00	6.00 to 7.00
CCC1(c2cccc(C(F)(F)F)c2)C2=CN=NC2NC2=C1C(=O)N(c1cc(C)n(C)n1)CC2 (centres undefined) [US20250313563, Compound 950608]	6.00 to 7.00	5.30 to 6.00
CCC1(c2cccc(C(F)(F)F)c2)C2=CN=NC2NC2=C1C(=O)N(c1cnn(C)c1C)CC2 (centres undefined) [US20250313563, Compound 950612]	> 7.00	5.30 to 6.00
CCC1(c2cccc(C(F)(F)F)c2)C2=CN=NC2NC2=C1C(=O)N(c1cccs1)CC2 (centres undefined) [US20250313563, Compound 950614]	> 7.00	6.00 to 7.00
CCC1(c2cccc(Oc3ncccn3)c2)C2=C(CC(C)(C)NC2=O)NC2N=NC(F)=C21 (centres undefined) [US20250313563, Compound 950615]	> 7.00	6.00 to 7.00
CCC1(c2cccc(C(F)(F)F)c2)C2=CN=NC2NC2=C1C(=O)N(c1ccsc1)CC2 (centres undefined) [US20250313563, Compound 950776]	> 7.00	6.00 to 7.00
CCC1(c2cccc(C(F)(F)F)c2)C2=CN=NC2NC2=C1C(=O)N(c1cscn1)CC2 (centres undefined) [US20250313563, Compound 950777]	> 7.00	6.00 to 7.00
CCC1(c2cccc(-c3cn(C)nc3C)c2)C2=CN=NC2NC2=C1C(=O)NC1(CCS(=O)(=O)CC1)C2 (centres undefined) [US20250313563, Compound 950813]	> 7.00	6.00 to 7.00
CC1(C)CC(=O)C2=C(NC3=C(CN=N3)C23CCN(S(=O)(=O)C2CC2)CC3)C1F (centres undefined) [US20250313563, Compound 950814]	> 7.00	> 7.00
CCC1(c2cccc(-c3c(C)nnn3C)c2)C2=C(N=NC2)NC2=C1C(=O)C(C)(C)C2 (centres undefined) [US20250313563, Compound 950815]	6.00 to 7.00	5.30 to 6.00
CC[C@@]1(c2cccc(C3CC3)c2)C2=CN=NC2NC2=C1C(=O)NC(C)(C)C2 (some centres undefined) [US20250313563, Compound 950817]	< 5.30	< 5.30
CC[C@@]1(c2cccc(-c3cc(C)nn3C)c2)C2=C(N=NC2)NC2=C1C(=O)C(C)(C)C2 [US20250313563, Compound 950818]	6.00 to 7.00	5.30 to 6.00
CC[C@]1(c2cccc(-c3cnn(C)c3)c2)C2=C(N=NC2)NC2=C1C(=O)C(C)(C)C2 [US20250313563, Compound 950819]	6.00 to 7.00	5.30 to 6.00
CC[C@@]1(c2cccc(-c3cnn(-c4ccccc4)c3F)c2)C2=CN=NC2NC2=C1C(=O)NC(C)(C)C2 (some centres undefined) [US20250313563, Compound 950821]	6.00 to 7.00	5.30 to 6.00
CC[C@@]1(c2cccc(-c3ccnn3-c3ccc(F)cc3)c2)C2=CN=NC2NC2=C1C(=O)NC(C)(C)C2 (some centres undefined) [US20250313563, Compound 950822]	6.00 to 7.00	6.00 to 7.00
CC[C@@]1(c2cccc(-c3ccnn3C3CC3(F)F)c2)C2=CN=NC2NC2=C1C(=O)NC(C)(C)C2 (some centres undefined) [US20250313563, Compound 950824]	> 7.00 and 6.00 to 7.00	> 7.00 and 6.00 to 7.00
CC[C@]1(c2cccc(-c3cc(C)nn3C)c2)C2=C(N=NC2)NC2=C1C(=O)C(C)(C)C2 [US20250313563, Compound 950827]	< 5.30	< 5.30
CC[C@@]1(c2cccc(C3CC3)c2)C2=CN=NC2NC2=C1C(=O)NC(C)(C)C2 (some centres undefined) [US20250313563, Compound 950828]	> 7.00 and 5.30 to 6.00	< 5.30
CC[C@@]1(c2cccc(C3=CNN4CC=CN=C34)c2)C2=CN=NC2NC2=C1C(=O)NC(C)(C)C2 (some centres undefined) [US20250313563, Compound 950830]	> 7.00	6.00 to 7.00
CC[C@]1(c2cccc(C(F)(F)F)c2)C2=C(N=NC2)NC2=C1C(=O)CC2 [US20250313563, Compound 951565]	> 7.00	6.00 to 7.00
CC[C@@]1(c2cccc(C(F)(F)F)c2)C2=C(N=NC2)NC2=C1C(=O)CC2 [US20250313563, Compound 951566]	5.30 to 6.00	< 5.30

Structure (SMILES)	pIC50 [1]	pIC50 [2]
CC[C@]1(c2cccc(N(C)c3ncccn3)c2)C2=C(CC(C)(C)NC2=O)NC2N=NC(Cl)=C21 (some centres undefined) [US20250313563, Compound 951592]	< 5.30	< 5.30
CCC1(c2cccc(C(F)(F)F)c2)C2=CN=NC2NC2=C1C(=O)N(c1ncn(C)c1C)CC2 (centres undefined) [US20250313563, Compound 951598]	6.00 to 7.00	< 5.30
CC[C@@]1(c2cccc(-c3ccncc3F)c2)C2=C(CC(C)(C)NC2=O)NC2N=NC(C(F)F)=C21 (some centres undefined) [US20250313563, Compound 951599]	6.00 to 7.00	6.00 to 7.00
CC[C@@]1(c2cccc(Oc3ncccn3)c2)C2=C(CC(C)(C)NC2=O)NC2N=NC(Cl)=C21 (some centres undefined) [US20250313563, Compound 951605]	5.30 to 6.00	< 5.30
CC[C@]1(c2cccc(Oc3ncccn3)c2)C2=C(CC(C)(C)NC2=O)NC2N=NC(Cl)=C21 (some centres undefined) [US20250313563, Compound 951606]	> 7.00	> 7.00 and 6.00 to 7.00
CC[C@]1(c2cccc(Oc3ncccn3)c2)C2=C(CC(C)(C)NC2=O)NC2N=NC(C(F)(F)F)=C21 (some centres undefined) [US20250313563, Compound 951607]	> 7.00	> 7.00 and 6.00 to 7.00
CC[C@]1(c2cccc(-c3ccncc3F)c2)C2=C(CC(C)(C)NC2=O)NC2N=NC(C(F)F)=C21 (some centres undefined) [US20250313563, Compound 951612]	> 7.00 and 6.00 to 7.00	> 7.00 and 5.30 to 6.00
CC[C@@]1(c2cccc(N(C)c3ncccn3)c2)C2=C(CC(C)(C)NC2=O)NC2N=NC(Cl)=C21 (some centres undefined) [US20250313563, Compound 951618]	6.00 to 7.00	5.30 to 6.00
CC(C)S(=O)(=O)N1CCC2(CC1)C1=C(N=NC1)NC1=C2C(=O)CC(C)(C)[C@H]1F [US20250313563, Compound 951701]	> 7.00 and 6.00 to 7.00	> 7.00 and 5.30 to 6.00
CC[C@@]1(c2cccc(-c3cn(C)nc3C)c2)C2=C(N=NC2)NC2=C1C(=O)C(C)(C)C2 [US20250313563, Compound 951702]	6.00 to 7.00	6.00 to 7.00
CC1(C)CC(=O)C2=C(NC3=C(CN=N3)C23CCN(S(=O)(=O)c2cccc(C(F)(F)F)c2)CC3)[C@@H]1F [US20250313563, Compound 951703]	> 7.00 and 6.00 to 7.00	> 7.00 and 5.30 to 6.00
CC1(C)CC(=O)C2=C(NC3=C(CN=N3)C23CCCCC3)[C@@H]1F [US20250313563, Compound 951705]	> 7.00	> 7.00
CC[C@@]1(c2cccc(-c3cn(C)nc3C3CC3)c2)C2=CN=NC2NC2=C1C(=O)NC(C)(C)C2 (some centres undefined) [US20250313563, Compound 951706]	> 7.00	> 7.00
CC[C@@]1(c2cccc(-c3cnn(C4CCCCC4)c3)c2)C2=CN=NC2NC2=C1C(=O)NC(C)(C)C2 (some centres undefined) [US20250313563, Compound 951707]	6.00 to 7.00	5.30 to 6.00
Cn1ccc(S(=O)(=O)N2CCC3(CC2)C2=C(N=NC2)NC2=C3C(=O)CC(C)(C)[C@@H]2F)n1 [US20250313563, Compound 951708]	> 7.00	6.00 to 7.00
Cn1ccc(S(=O)(=O)N2CCC3(CC2)C2=C(N=NC2)NC2=C3C(=O)CC(C)(C)[C@H]2F)n1 [US20250313563, Compound 951709]	> 7.00	6.00 to 7.00
CC[C@]1(c2cccc(C3=CN(C)NC3C)c2)C2=C(N=NC2)NC2=C1C(=O)C(C)(C)C2 (some centres undefined) [US20250313563, Compound 951710]	< 5.30	< 5.30
CC1(C)CC(=O)C2=C(NC3N=NC=C3C23CCCCC3)[C@H]1F (some centres undefined) [US20250313563, Compound 951711]	> 7.00	> 7.00
CC1(C)CC(=O)C2=C(NC3=C(CN=N3)C23CCN(S(=O)(=O)c2cccc(C(F)(F)F)c2)CC3)[C@H]1F [US20250313563, Compound 951713]	> 7.00 and 6.00 to 7.00	> 7.00 and 5.30 to 6.00
CC(C)S(=O)(=O)N1CCC2(CC1)C1=C(N=NC1)NC1=C2C(=O)CC(C)(C)[C@@H]1F [US20250313563, Compound 951714]	> 7.00 and 6.00 to 7.00	> 7.00 and 6.00 to 7.00
CC1(C)CC(=O)C2=C(C1)NC1=C(CN=N1)[C@@]21CCN(S(=O)(=O)CC2CC2)C1 [US20250313563, Compound 951724]	> 7.00	> 7.00
Cn1cc(S(=O)(=O)N2CC[C@@]3(C2)C2=C(N=NC2)NC2=C3C(=O)CC(C)(C)C2)cn1 [US20250313563, Compound 951725]	6.00 to 7.00	5.30 to 6.00
Cn1cc(S(=O)(=O)N2CC[C@]3(C2)C2=C(N=NC2)NC2=C3C(=O)CC(C)(C)C2)cn1 [US20250313563, Compound 951726]	> 7.00 and 5.30 to 6.00	> 7.00 and 5.30 to 6.00
CC[C@]1(c2cccc(C(F)(F)F)c2)C2=CN=NC2NC2=C1C(=O)N(c1cnsc1)CC2 (some centres undefined) [US20250313563, Compound 951733]	> 7.00	6.00 to 7.00
CC[C@]1(c2cccc(N(C)c3ncccn3)c2)C2=C(CC(C)(C)NC2=O)NC2N=NC(C(F)F)=C21 (some centres undefined) [US20250313563, Compound 951736]	> 7.00	6.00 to 7.00
CC[C@@]1(c2cccc(N(C)c3ncccn3)c2)C2=C(CC(C)(C)NC2=O)NC2N=NC(C(F)F)=C21 (some centres undefined) [US20250313563, Compound 951740]	> 7.00	> 7.00 and 6.00 to 7.00
